Reference: patent publication US20170009266A1, “PROCESS FOR THE ATTACHMENT OF A GALNAC MOIETY COMPRISING A (HETERO)ARYL GROUP TO A GLCNAC MOIETY, AND PRODUCT OBTAINED THEREBY” (SYNAFFIX B.V., priority 2014, published 2017)

Target: T1, Gal-T1(Y289L,C342T) (Bos taurus, UniProt P08037, C342T/Y289L)
T1 construct: host or cells: E. coli
T1 sequence (P08037 130-402 V158I/P187L/I205M/L206V/Y289L/C342T): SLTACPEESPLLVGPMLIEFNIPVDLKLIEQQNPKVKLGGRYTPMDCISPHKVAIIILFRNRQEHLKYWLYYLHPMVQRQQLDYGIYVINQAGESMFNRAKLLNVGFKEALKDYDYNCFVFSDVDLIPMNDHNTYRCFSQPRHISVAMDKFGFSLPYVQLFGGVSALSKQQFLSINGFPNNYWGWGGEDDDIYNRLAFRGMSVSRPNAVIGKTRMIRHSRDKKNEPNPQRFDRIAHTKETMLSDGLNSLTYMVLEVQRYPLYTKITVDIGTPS
Assay: Glycosyltransfer of UDP-galactosamine derivatives to trimmed antibody with Gal-T1(Y289L,C342T), mass spectral analysis
Assay type: biochemical, bovine
Protocol: A solution of 20 μg (modified) IgG was incubated for 1 hour at 37° C. with Fabricator™ (commercially available from Genovis, Lund, Sweden) (1.25 U/μL) in phosphate-buffered saline (PBS) pH 6.6 in a total volume of 10 μL. Fabricator™-digested samples were washed trice with milliQ using an Amicon Ultra-0.5, Ultracel-10 Membrane (Millipore) resulting in a final sample volume of approximately 40 μL. The Fc/2 fragment was analyzed by electrospray ionization time-of-flight (ESI-TOF) on a JEOL AccuTOF. Deconvoluted spectra were obtained using Magtran software.
Trimmed trastuzumab (10 mg/mL, 3.3 nmol), obtained by Endo S treatment of trastuzumab, was incubated with nicotinic acid variant of UDP-galactosamine (21, 2 mM) and Gal-T1(Y289L,C342T) (0.5 mg/mL, 3 μL/4 mg/ml) in 10 mM MnCl2 and 25 mM Tris-HCl pH 7.5 at 30° C. overnight. Mass spectral analysis of the sample after treatment with Fabricator™ (commercially available from Genovis) indicated the formation of the correct structure of CH2-CH3 fragment of 28 (24404 Da, expected mass 24405 Da, approximately 35% conversion), resulting from galactosamide nicotinic acid transfer to core GlcNAc(Fuc) substituted trastuzumab heavy chain.
A pET22b vector containing the sequence encoding residues 130-402 of bovine Gal-T1 with the Y289L and C342T mutations between the NdeI-BamHI sites was obtained from Genscript. Using this plasmid Gal-T1(Y289L,C342T) was expressed, isolated and refolded from inclusion bodies according to the reported procedure by Qasba et al. (Prot. Expr. Pur. 2003, 30, 219-76229, incorporated by reference herein). After refolding, the solution was dialyzed against 20 mM Tris pH 7.5 and the insoluble protein was removed by centrifugation (10 minutes 10.000 g). The soluble Gal-T1(Y289L,C342T), represented by SEQ ID NO: 25, was purified and concentrated using a cation exchange column (Source 15S HR16/10 column, GE Healthcare). After elution with 20 mM Tris-HCl pH 7.5, 1 M NaCl, the protein was dialyzed against 20 mM Tris-HCl pH 7.5. This procedure yielded 90 mg inclusion bodies from 0.5 L culture, which after refolding gave 3.9 mg active soluble protein.
Trimmed trastuzumab (10 mg/mL, 66 μM), obtained by Endo S treatment of trastuzumab, was incubated with the 4-azido-2,3,5,6-tetrafluorobenzoyl derivative of UDP-galactosamine (23b, 1 mM) and Gal-T1(Y289L,C342T) (1.0 mg/mL) in 10 mM MnCl2 and 25 mM Tris-HCl pH 8.0 at 30° C. overnight. Mass spectral analysis of the Fabricator™-digested sample indicated a partial conversion of core GlcNac(Fuc)-substituted trastuzumab (observed mass 24139 Da, calculated mass of 24136 Da) into the product 30b (observed mass 24518 Da, calculated mass of 24514 Da, approximately 10% of total Fc/2 fragment), resulting from transfer of 23b to core GlcNAc(Fuc)-substituted trastuzumab.
Trimmed cetuximab (5 mg/mL, 33 μM), obtained by Endo S treatment of cetuximab, was incubated with the 4-azido-2,3,5,6-tetrafluorobenzoyl derivative of UDP-galactosamine (23b, 2 mM) and Gal-T1(Y289L,C342T) (1.0 mg/mL) in 25 mM Tris-HCL pH 7.5 and 150 mM NaCl at 30° C. overnight. Mass spectral analysis of the Fabricator™-digested sample indicated a partial conversion of the core GlcNac(Fuc)-substituted adalimumab (observed mass 24138 Da, calculated mass of 24136 Da) into product 30b (observed mass 24518 Da, calculated mass of 24514 Da, approximately 20% of total Fc/2 fragment), resulting from transfer of 23b to core GlcNAc(Fuc)-substituted adalimumab.
Trimmed bevacizumab (5 mg/mL, 33 μM), obtained by Endo S treatment of bevacizumab, was incubated with the 4-azido-2,3,5,6-tetrafluorobenzoyl derivative of UDP-galactosamine (23b, 2 mM) and Gal-T1(Y289L,C342T) (1.0 mg/mL) in 25 mM Tris-HCL pH 7.5 and 150 mM NaCl at 30° C. overnight. […]

Structure (SMILES): [N-]=[N+]=Nc1c(F)c(F)c(C(=O)N[C@H]2[C@@H](OP(=O)(O)OP(=O)(O)OC[C@H]3O[C@@H](n4ccc(=O)[nH]c4=O)[C@H](O)[C@@H]3O)O[C@H](CO)[C@H](O)[C@@H]2O)c(F)c1F [Compound 23b, 4-azido-2,3,5,6-tetrafluorobenzoyl Derivative of UDP-GalNH2]
- product, % of total Fc/2 fragment (trimmed adalimumab 5 mg/mL, UDP derivative 2 mM, enzyme 1.0 mg/mL, pH 7.5, 30° C. overnight): approximately 30%
- product, % of total Fc/2 fragment (trimmed bevacizumab 5 mg/mL, UDP derivative 2 mM, enzyme 1.0 mg/mL, pH 7.5, 30° C. overnight): approximately 30%
- product, % of total Fc/2 fragment (trimmed cetuximab 5 mg/mL, UDP derivative 2 mM, enzyme 1.0 mg/mL, pH 7.5, 30° C. overnight): approximately 20%
- product, % of total Fc/2 fragment (trimmed trastuzumab 10 mg/mL, UDP derivative 1 mM, enzyme 1.0 mg/mL, pH 8.0, 30° C. overnight): approximately 10%

Structure (SMILES): [N-]=[N+]=Nc1ccc(C(=O)NC2C(OP(=O)(O)OP(=O)(O)OCC3OC(n4ccc(=O)[nH]c4=O)C(O)C3O)OC(CO)C(O)C2O)cn1 (stereo not shown) [Compound 21b, 6-azidonicotinic Acid Derivative of UDP-GalNH2]
- product, % of total Fc/2 fragment (trimmed trastuzumab 10 mg/mL, UDP derivative 5 mM, enzyme 1.0 mg/mL, pH 7.5, 30° C. overnight): approximately 95%

Structure (SMILES): [N-]=[N+]=Nc1c(F)cc(C(=O)N[C@H]2[C@@H](OP(=O)(O)OP(=O)(O)OC[C@H]3O[C@@H](n4ccc(=O)[nH]c4=O)[C@H](O)[C@@H]3O)O[C@H](CO)[C@H](O)[C@@H]2O)cc1F [Compound 23, 4-azido-3,5-difluorobenzoyl Derivative of UDP-GalNH2]
- conversion of core GlcNAc(Fuc)-substituted trastuzumab into product (trimmed trastuzumab 10 mg/mL, UDP derivative 1 mM, enzyme 1.0 mg/mL, pH 8.0, 30° C. overnight, reduced sample): complete conversion

Structure (SMILES): O=C(NC1C(OP(=O)(O)OP(=O)(O)OCC2OC(n3ccc(=O)[nH]c3=O)C(O)C2O)OC(CO)C(O)C1O)c1cccnc1 (stereo not shown) [Compound 21, 3-pyridylcarbonyl Derivative of UDP-GalNH2]
- conversion (trimmed trastuzumab 10 mg/mL, UDP derivative 2 mM, enzyme 0.5 mg/mL (E. coli), pH 7.5, 30° C. overnight, Fabricator-digested): approximately 35%
